Laboratory results taken from US20110082130A1 (LIGAND PHARMACEUTICALS, INC., priority 2006, published 2011).
pKi: −log10 of the molar value.

Molecular target: T1, chimeric human H3 receptor (Homo sapiens, UniProt Q9Y5N1)
T1 construct: made in house; host or cells: Sf9 insect cells (baculovirus); P2 membrane preparation
Test: Chimeric human H3 receptor GTP binding assay (agonist-stimulated GTP-gamma35S binding, Example 7)
Assay type: biochemical
Details: Table II; "*" = Ki in assay of Example 7 less than 1 micromolar
Text: This Example illustrates a representative assay for evaluating agonist-stimulated GTP-gamma^35S binding (“GTP binding”) activity. […] This agonist-stimulated GTP binding activity can also be used to detect partial agonism mediated by antagonist compounds. A compound analyzed in this assay is referred to herein as a “test compound.”
Four independent baculoviral stocks (one directing the expression of the chimeric human H3 receptor and three directing the expression of each of the three subunits of a heterotrimeric G-protein) are used to infect a culture of Sf9 cells as described above. P2 membranes are prepared as described above, and agonist-stimulated GTP binding on the P2 membranes is assessed using histamine (Sigma Chemical Co., St. Louis, Mo.) as agonist in order to ascertain that the receptor/G-protein-alpha-beta-gamma combination(s) yield a functional response as measured by GTP binding. P2 membranes are resuspended by Dounce homogenization (tight pestle) in GTP binding assay buffer (50 mM Tris pH 7.4, 120 mM NaCl, 5 mM MgCl2, 2 mM EGTA, 1 mg/ml BSA, 0.2 mg/ml bacitracin, 0.02 mg/ml aprotinin, 0.01 mg/ml saponin, 10 μM GDP) and added to assay tubes at a concentration of 35 μg protein/reaction tube. After adding increasing doses of histamine at concentrations ranging from 10^−12 M to 10^−5 M, reactions are initiated by the addition of […] GTP-gamma^35S (PERKIN ELMER; Boston, Mass.) with a final assay volume of 0.20 ml. In competition experiments, non-radiolabeled test compounds are added to separate reactions at concentrations ranging from 10^−10 M to 10^−6 M along with 1 μM histamine to yield a final volume of 0.20 ml.
Neutral antagonists are antagonists that are substantially free of inherent agonist activity, and include those test compounds that reduce the histamine-stimulated GTP binding activity towards, but not below, baseline levels. In contrast, in the absence of added histamine, inverse agonists reduce the GTP binding activity of the receptor-containing membranes below baseline.
After a 60-min incubation at room temperature, reactions are terminated by vacuum filtration over WHATMAN GF/C filters (pre-soaked in wash buffer, 0.1% BSA) followed by washing with ice-cold wash buffer (50 mM Tris pH 7.4, 120 mM NaCl). The amount of receptor-bound (and thereby membrane-bound) GTP-gamma^35S is determined by measuring the filter-bound radioactivity, preferably by liquid scintillation spectrometry of the washed filters. Non-specific binding is determined in parallel assays including 10 μM unlabeled GTP-gammaS and typically represents less than 5 percent of total binding. Data is expressed as percent above basal (baseline). The results of GTP binding experiments are analyzed using SIGMAPLOT software (SPSS Inc., Chicago, Ill.). IC50 values are calculated by non-linear regression analysis of dose-response curves using Kaleidograph (Synergy Software, Reading, Pa.).
Alternatively the data is analyzed as follows. First, the average bound radioactivity from negative control wells (no agonist) is subtracted from the bound radioactivity detected for each of the other experimental wells. Second, average bound radioactivity is calculated for the positive control wells (agonist wells). Then, percent inhibition for each compound tested is calculated using the equation:
Calculated IC50 values are converted to K1 values by the Cheng-Prusoff correction (Cheng and Prusoff (1973) Biochem. Pharmacol. 22(23):3099-3108). Accordingly, the following equation: Ki=IC50/(1+[L]/EC50) is used, where [L] is the histamine concentration in the GTP binding assay, and EC50 is the concentration of histamine producing a 50% response, as determined by a dose-response analysis using concentrations of histamine ranging from 10^−10 M to 10^−6M. […]

T1 sequence (Q9Y5N1 with tags, fused parts or gaps): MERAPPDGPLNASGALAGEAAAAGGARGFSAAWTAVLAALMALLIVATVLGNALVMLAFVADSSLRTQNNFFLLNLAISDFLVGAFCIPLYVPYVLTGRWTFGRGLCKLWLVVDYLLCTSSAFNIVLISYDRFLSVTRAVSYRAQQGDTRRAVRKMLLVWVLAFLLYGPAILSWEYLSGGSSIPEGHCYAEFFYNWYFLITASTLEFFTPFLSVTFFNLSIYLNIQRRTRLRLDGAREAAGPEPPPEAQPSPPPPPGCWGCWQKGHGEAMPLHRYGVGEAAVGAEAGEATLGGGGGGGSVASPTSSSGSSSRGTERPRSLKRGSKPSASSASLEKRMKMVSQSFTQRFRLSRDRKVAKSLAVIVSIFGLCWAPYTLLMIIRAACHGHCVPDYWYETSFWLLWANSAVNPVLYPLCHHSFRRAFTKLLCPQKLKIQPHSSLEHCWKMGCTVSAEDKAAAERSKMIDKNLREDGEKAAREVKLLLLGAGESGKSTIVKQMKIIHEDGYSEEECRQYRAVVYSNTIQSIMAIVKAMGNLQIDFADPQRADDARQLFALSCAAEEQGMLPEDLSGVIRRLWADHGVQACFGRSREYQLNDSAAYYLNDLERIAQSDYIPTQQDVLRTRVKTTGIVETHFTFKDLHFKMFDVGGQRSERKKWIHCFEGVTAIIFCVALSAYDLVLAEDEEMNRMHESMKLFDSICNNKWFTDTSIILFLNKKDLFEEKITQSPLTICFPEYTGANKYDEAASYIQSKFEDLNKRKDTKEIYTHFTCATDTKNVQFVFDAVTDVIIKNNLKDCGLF

pKi, > 6.00:
CC1CCC[C@H]2CN(C(=O)CN3CCc4cc(Br)ccc4C3)CCN12 (stereo in doubt) [Compound 146, 2-[(6-bromo-3,4-dihydroisoquinolin-2(1H)-yl)acetyl]-6-methyloctahydro-2H-pyrido[1,2-a]pyrazine]
CC1CCC[C@H]2CN(C(=O)CN3CCc4nc(Cl)sc4C3)CCN12 (stereo in doubt) [Compound 147, 2-[(2-chloro-6,7-dihydro[1,3]thiazolo [5,4-c]pyridin-5(4H)-yl)acetyl]-6-methyloctahydro-2H-pyrido[1,2-a]pyrazine]
CC1CCC[C@H]2CN(C(=O)CN3CCc4cc(-c5cncnc5)ccc4C3)CCN12 (stereo in doubt) [Compound 149, 6-methyl-2-[(6-pyrimidin-5-yl-3,4-dihydroisoquinolin-2(1H)-yl)acetyl]octahydro-2H-pyrido[1,2-a]pyrazine]
CC1CCC[C@H]2CN(C(=O)CN3CCc4nc(-c5cncnc5)sc4C3)CCN12 (stereo in doubt) [Compound 150, 6-methyl-2-[(2-pyrimidin-5-yl-6,7-dihydro[1,3]thiazolo [5,4-c]pyridin-5(4H)-yl)acetyl]octahydro-2H-pyrido[1,2-a]pyrazine]
CC1CCC[C@H]2CN(C(=O)CN3CCc4cc(-n5cccn5)ccc4C3)CCN12 (stereo in doubt) [Compound 152, 6-methyl-2-{[6-(1H-pyrazol-1-yl)-3,4-dihydroisoquinolin-2(1H)-yl]acetyl}octahydro-2H-pyrido[1,2-a]pyrazine]
CC1CCC[C@H]2CN(C(=O)CN3CCc4cc(-n5ccc(C(F)(F)F)n5)ccc4C3)CCN12 (stereo in doubt) [Compound 158, 6-methyl-2-({6-[3-(trifluoromethyl)-1H-pyrazol-1-yl]-3,4-dihydroisoquinolin-2(1H)-yl}acetyl)octahydro-2H-pyrido[1,2-a]pyrazine]
CCC1CCC[C@H]2CN(C(=O)CN3CCc4cc(-c5cncnc5)ccc4C3)CCN12 (stereo in doubt) [Compound 160, 6-ethyl-2-[(6-pyrimidin-5-yl-3,4-dihydroisoquinolin-2(1H)-yl)acetyl]octahydro-2H-pyrido[1,2-a]pyrazine]
CCC1CCC[C@H]2CN(C(=O)CN3CCc4cc(-n5ccc(C(F)(F)F)n5)ccc4C3)CCN12 (stereo in doubt) [Compound 161, 6-ethyl-2-({6-[3-(trifluoromethyl)-1H-pyrazol-1-yl]-3,4-dihydroisoquinolin-2(1H)-yl}acetyl)octahydro-2H-pyrido[1,2-a]pyrazine]
CCC1CCC[C@H]2CN(C(=O)CN3CCc4cc(Br)ccc4C3)CCN12 (stereo in doubt) [Compound 162, 2-[(6-bromo-3,4-dihydroisoquinolin-2(1H)-yl)acetyl]-6-ethyloctahydro-2H-pyrido[1,2-a]pyrazine]
CCC1CCC[C@H]2CN(C(=O)CN3CCc4cc(C(C)=O)ccc4C3)CCN12 (stereo in doubt) [Compound 163, 1-{2-[2-(6-ethyloctahydro-2H-pyrido[1,2-a]pyrazin-2-yl)-2-oxoethyl]-1,2,3,4-tetrahydroisoquinolin-6-yl}ethanone]
CCC1CCC[C@H]2CN(C(=O)CN3CCc4cc(-n5cccn5)ccc4C3)CCN12 (stereo in doubt) [Compound 167, 6-ethyl-2-{[6-(1H-pyrazol-1-yl)-3,4-dihydroisoquinolin-2(1H)-yl]acetyl}octahydro-2H-pyrido[1,2-a]pyrazine]
CC1CCC[C@H]2CN(C(=O)CN3CCc4nc(Cl)ccc4C3)CCN12 (stereo in doubt) [Compound 174, 2-chloro-6-[2-(6-methyloctahydro-2H-pyrido[1,2-a]pyrazin-2-yl)-2-oxoethyl]-5,6,7,8-tetrahydro-1,6-naphthyridine]
